Test results taken from US9896440B2, “Aryl substituted heterocyclyl sulfones” (GRÜNENTHAL GMBH, priority 2014, dated 2018).

Molecular target: T1, Human CaV2.2 channels (Homo sapiens, UniProt Q00975)
T1 construct: expressed in transfected cells; Kir2.3 also stably co-expressed
Assay: Fluorescence assay for CaV2.2 channels using potassium depolarization to induce channel opening (FLIPR, Fluo 4)
Type: cell-based
Settings: 30 mM KCl assay buffer (inactivated channel state), HEK293 cells; for inhibition at 3 µM: HEK293, 3 μM test compound, read-out: Activity Category: %-Inhib (CaV2.2) @3 μM @30 mM KCl; for Activity Category: %-Inhib (CaV2.2) @3 μM @30 mM KCl: 3 μM test compound
From the text: In the process, the Ca^2+ influx is quantified in the FLIPR assay with the aid of a Ca^2+-sensitive dye (type Fluo-4, Molecular Probes Europe BV, Leiden, the Netherlands) in a fluorescent imaging plate reader (FLIPR 3, Molecular Devices, Sunnyvale, USA), as described hereinafter.
Human CaV2.2 channels were stably expressed in HEK293 cells together with alpha2-delta and beta subunits of voltage gated calcium channels. In addition, an inwardly rectifying potassium channel (Kir2.3) was stably expressed in these cells to augment control of the cell membrane potential by the concentration of extracellular potassium ions. Raise of the extracellular potassium concentration leads to depolarization of the membrane potential and thus regulates the voltage dependent state of CaV2.2 channels. For preparation, cells were seeded in black poly-D-lysine coated 96-well plates (Becton Dickinson, Biocoat 4640) in 100 μL medium [500 mL DMEM/F-12 plus Glutamax (Invitrogen 31331-093) plus 5.5 mL MEM NEAA 100× (Invitrogen 11140-035) plus 50 mL FBS decomplemented (Invitrogen 10270-106) plus 200 μg/mL Geneticin (Invitrogen 10131-027) plus 50 μg/mL Hygromycin B (Invitrogen 10687-010) plus 2 μg/mL Blasticidin (anti-bl5b Invivo-Gen) plus 0.2 μg/mL Puromycin (A 11138-03)] at a cell density of 30.000 cells per well. Plates were incubated at 37° C. (5% CO2) for 20 to 23 h. On the day of experiment medium was discarded and cells were loaded with Fluo 4 by addition of 100 μL of basic assay buffer (10 mM HEPES, 1 mM KCl, 149 mM NaCl, 0.8 mM CaCl2, 1.7 mM MgCl2, 10 mM Glucose, 0.1% BSA. pH 7.4) containing 2 μM Fluo 4 (Molecular Probes; F-14201), 0.01% pluronic acid (Molecular Probes; P-6866) and 2.5 mM probenecid (Molecular Probes; P36400). Cells were incubated in the dark at 25° C. for 60 min. Then dye containing buffer was discarded and 100 μL basic (1 mM KCl) or alternative (30 mM KCl) assay buffer was added. The alternative assay buffer contained altered concentrations of KCl (30 mM) and NaCl (120 mM) and was used in order to promote the inactivated channel state. After that 25 μL of basic or alternative assay buffer with or without test compound were added and cells were incubated again in the dark at 25° C. for 15 min. Fluorescence intensity was measured on a FLIPR 3 instrument (Molecular Devices Corp., Sunnyvale, Calif.) with excitation at 480 nm and emission at 535 nm. After continuously reading fluorescence for 30 sec, 50 μL of basic assay buffer containing 210 mM KCl (NaCl omitted) were added for depolarization. Peak fluorescent signal intensity was determined and the amplitude of the peak signal, normalized to base line, was used to measure channel inhibition by test compounds.

T1 sequence (Q00975 whole entry): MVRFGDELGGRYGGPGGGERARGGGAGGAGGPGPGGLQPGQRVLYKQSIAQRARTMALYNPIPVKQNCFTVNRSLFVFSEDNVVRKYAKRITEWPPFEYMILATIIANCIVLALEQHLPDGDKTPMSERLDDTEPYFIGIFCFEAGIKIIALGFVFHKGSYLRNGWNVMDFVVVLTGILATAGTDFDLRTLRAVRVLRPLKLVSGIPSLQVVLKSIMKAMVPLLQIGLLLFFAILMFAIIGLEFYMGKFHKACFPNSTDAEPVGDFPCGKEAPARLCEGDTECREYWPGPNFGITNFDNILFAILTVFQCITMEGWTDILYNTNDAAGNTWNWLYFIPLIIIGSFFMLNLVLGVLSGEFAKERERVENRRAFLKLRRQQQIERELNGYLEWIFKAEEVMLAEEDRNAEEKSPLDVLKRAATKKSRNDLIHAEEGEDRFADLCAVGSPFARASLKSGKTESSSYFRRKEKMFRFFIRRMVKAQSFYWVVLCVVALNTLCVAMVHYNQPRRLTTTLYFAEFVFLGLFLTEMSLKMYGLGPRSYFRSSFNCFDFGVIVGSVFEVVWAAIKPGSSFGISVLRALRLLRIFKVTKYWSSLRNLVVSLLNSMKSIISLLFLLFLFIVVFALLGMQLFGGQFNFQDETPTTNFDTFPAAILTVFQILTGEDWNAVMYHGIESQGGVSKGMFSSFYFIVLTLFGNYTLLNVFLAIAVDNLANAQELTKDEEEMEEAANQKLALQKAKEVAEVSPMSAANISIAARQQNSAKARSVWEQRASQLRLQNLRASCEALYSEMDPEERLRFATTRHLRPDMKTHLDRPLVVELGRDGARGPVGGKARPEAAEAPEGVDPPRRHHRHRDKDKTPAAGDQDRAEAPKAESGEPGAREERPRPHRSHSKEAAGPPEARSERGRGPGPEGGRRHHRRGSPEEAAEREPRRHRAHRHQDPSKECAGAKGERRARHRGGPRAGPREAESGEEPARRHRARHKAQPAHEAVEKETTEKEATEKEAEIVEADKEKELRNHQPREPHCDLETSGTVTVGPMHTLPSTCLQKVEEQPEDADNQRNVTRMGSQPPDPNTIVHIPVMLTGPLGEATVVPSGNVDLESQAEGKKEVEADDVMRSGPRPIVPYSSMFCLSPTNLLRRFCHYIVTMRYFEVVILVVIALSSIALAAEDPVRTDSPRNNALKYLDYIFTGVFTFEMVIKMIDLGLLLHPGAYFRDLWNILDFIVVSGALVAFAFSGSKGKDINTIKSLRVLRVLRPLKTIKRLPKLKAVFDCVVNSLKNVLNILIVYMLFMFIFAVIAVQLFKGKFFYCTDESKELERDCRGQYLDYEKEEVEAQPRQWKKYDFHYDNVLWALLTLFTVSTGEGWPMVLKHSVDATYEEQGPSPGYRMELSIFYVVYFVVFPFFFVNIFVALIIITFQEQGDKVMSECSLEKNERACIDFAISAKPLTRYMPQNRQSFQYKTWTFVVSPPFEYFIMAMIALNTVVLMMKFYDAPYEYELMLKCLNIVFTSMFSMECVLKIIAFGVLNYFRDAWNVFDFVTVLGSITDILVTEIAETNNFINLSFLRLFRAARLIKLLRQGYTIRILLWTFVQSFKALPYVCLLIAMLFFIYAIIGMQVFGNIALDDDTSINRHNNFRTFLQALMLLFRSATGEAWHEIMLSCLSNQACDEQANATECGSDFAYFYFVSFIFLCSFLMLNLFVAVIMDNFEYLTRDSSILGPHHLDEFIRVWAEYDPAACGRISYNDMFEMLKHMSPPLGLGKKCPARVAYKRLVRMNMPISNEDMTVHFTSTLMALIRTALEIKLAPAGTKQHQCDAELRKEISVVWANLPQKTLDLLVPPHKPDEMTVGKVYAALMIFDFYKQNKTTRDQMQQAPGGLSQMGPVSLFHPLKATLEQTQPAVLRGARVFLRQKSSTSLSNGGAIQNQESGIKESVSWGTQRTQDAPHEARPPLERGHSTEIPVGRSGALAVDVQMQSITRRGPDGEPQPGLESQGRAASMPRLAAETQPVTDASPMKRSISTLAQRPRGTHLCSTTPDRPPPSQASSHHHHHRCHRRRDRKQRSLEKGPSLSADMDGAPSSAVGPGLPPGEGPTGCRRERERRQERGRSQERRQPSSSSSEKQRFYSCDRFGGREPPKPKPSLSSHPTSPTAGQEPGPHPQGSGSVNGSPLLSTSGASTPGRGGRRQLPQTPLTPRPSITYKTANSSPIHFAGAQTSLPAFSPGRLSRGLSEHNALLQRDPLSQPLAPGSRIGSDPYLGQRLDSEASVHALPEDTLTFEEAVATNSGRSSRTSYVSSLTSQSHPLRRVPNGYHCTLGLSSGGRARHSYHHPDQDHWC

## CC1(C)CC(C)(S(=O)(=O)c2cccc(C(F)(F)F)c2)CC(c2ccc(Cl)cc2)O1 (racemic) [SC-302, 6-(4-Chlorophenyl)-2,2,4-trimethyl-4-[[3-(trifluoromethyl)phenyl]sulfonyl]-tetrahydro-pyran]
  inhibition at 3 µM: 75 to 95%

## CC1(S(=O)(=O)c2cc(F)cc(C(F)(F)F)c2)CCOC(c2ccc(Cl)cc2)C1 (racemic) [SC-305, 2-(4-Chlorophenyl)-4-[[3-fluoro-5-(trifluoromethyl)-phenyl]sulfonyl]-4-methyl-tetrahydro-pyran]
  inhibition at 3 µM: 75 to 95%

## CC1(S(=O)(=O)c2cccc(OC(F)(F)F)c2)CCOC(c2ccc(Cl)cc2)C1 (racemic) [SC-315, 2-(4-Chlorophenyl)-4-methyl-4-[[3-(trifluoromethyloxy)-phenyl]sulfonyl]-tetrahydro-pyran]
  inhibition at 3 µM: > 95%

## CC1(S(=O)(=O)c2cccc(OC(F)(F)F)c2)CCOC(c2ccc(S(C)(=O)=O)cc2F)C1 (racemic) [SC-504, 2-(2-Fluoro-4-methylsulfonyl-phenyl)-4-methyl-4-[[3-(trifluoromethyloxy)-phenyl]sulfonyl]-tetrahydro-pyran]
  inhibition at 3 µM: > 95%

## CC(C)c1cccc(S(=O)(=O)C2(C)CCOC(c3ccc(S(C)(=O)=O)cc3F)C2)c1 (racemic) [SC-505, 2-(2-Fluoro-4-methylsulfonyl-phenyl)-4-[(3-isopropyl-phenyl)sulfonyl]-4-methyl-tetrahydro-pyran]
  inhibition at 3 µM: > 95%

## CC1(S(=O)(=O)c2cccc(C(F)F)c2)CCOC(c2ccc(S(C)(=O)=O)cc2F)C1 (racemic) [SC-508, 4-[[3-(Difluoro-methyl)-phenyl]sulfonyl]-2-(2-fluoro-4-methylsulfonyl-phenyl)-4-methyl-tetrahydro-pyran]
  inhibition at 3 µM: 75 to 95%

## CC(C)Oc1cccc(S(=O)(=O)C2(C)CCOC(c3ccc(S(C)(=O)=O)cc3F)C2)c1 (racemic) [SC-511, 2-(2-Fluoro-4-methylsulfonyl-phenyl)-4-[(3-isopropoxy-phenyl)sulfonyl]-4-methyl-tetrahydro-pyran]
  inhibition at 3 µM: 75 to 95%

## CC1(S(=O)(=O)c2cccc(C3CC3)c2)CCOC(c2ccc(S(C)(=O)=O)cc2F)C1 (racemic) [SC-514, 4-[(3-Cyclopropyl-phenyl)sulfonyl]-2-(2-fluoro-4-methylsulfonyl-phenyl)-4-methyl-tetrahydro-pyran]
  inhibition at 3 µM: > 95%

## CC1(S(=O)(=O)c2cc(F)cc(C(F)(F)F)c2)CCOC(c2ccc(S(C)(=O)=O)cc2F)C1 (racemic) [SC-515, 2-(2-Fluoro-4-methylsulfonyl-phenyl)-4-[[3-fluoro-5-(trifluoromethyl)-phenyl]sulfonyl]-4-methyl-tetrahydro-pyran]
  inhibition at 3 µM: > 95%

## CC1(S(=O)(=O)c2cccc(OC(F)F)c2)CCOC(c2ccc(S(C)(=O)=O)cc2F)C1 (racemic) [SC-520, 4-[[3-(Difluoro-methoxy)-phenyl]sulfonyl]-2-(2-fluoro-4-methylsulfonyl-phenyl)-4-methyl-tetrahydro-pyran]
  inhibition at 3 µM: 75 to 95%

## CC1(S(=O)(=O)c2cccc(C(F)(F)F)c2)CCC(c2ccc(Cl)cc2)OC1 (single isomer, unassigned) [SC-116, 2-(4-Chlorophenyl)-5-methyl-5-[[3-(trifluoromethyl)phenyl]sulfonyl]-tetrahydro-pyran]
  inhibition at 3 µM: 40 to 75%

## CC1(c2ccc(Cl)cc2)CC(S(=O)(=O)c2cccc(C(F)(F)F)c2)CCO1 (single isomer, unassigned) [SC-117, 2-(4-Chlorophenyl)-2-methyl-4-[[3-(trifluoromethyl)phenyl]sulfonyl]-tetrahydro-pyran]
  inhibition at 3 µM: > 95%

## CC1(S(=O)(=O)c2cccc(C(F)(F)F)c2)CCOC(COc2ccc(Cl)cc2)C1 (single isomer, unassigned) [SC-127, 2-((4-chlorophenoxy)methyl)-4-methyl-4-((3-(trifluoromethyl)phenyl)sulfonyl)tetrahydro-2H-pyran]
  inhibition at 3 µM: > 95%

## CC1(S(=O)(=O)c2cccc(C(F)(F)F)c2)CCOC(Cc2ccc(Cl)cc2)C1 (single isomer, unassigned) [SC-130, 2-[(4-Chlorophenyl)-methyl]-4-methyl-4-[[3-(trifluoromethyl)phenyl]sulfonyl]-tetrahydro-pyran]
  inhibition at 3 µM: 75 to 95%

## CC1(S(=O)(=O)c2cccc(C(F)(F)F)c2)CCOC(c2ccc(S(C)(=O)=O)c(S(C)(=O)=O)c2)C1 (single isomer, unassigned) [SC-132, 2-[3,4-Bis(methylsulfonyl)-phenyl]-4-methyl-4-[[3-(trifluoromethyl)phenyl]sulfonyl]-tetrahydro-pyran]
  inhibition at 3 µM: 75 to 95%

## CC1(S(=O)(=O)c2cccc(C(F)(F)F)c2)CCOC(c2ccc(S(C)(=O)=O)c(S(C)(=O)=O)c2)C1 (single isomer, unassigned) [SC-133, 2-[3,4-Bis(methylsulfonyl)-phenyl]-4-methyl-4-[[3-(trifluoromethyl)phenyl]sulfonyl]-tetrahydro-pyran]
  Activity Category: %-Inhib (CaV2.2) @3 μM @30 mM KCl: A (%-Inhibition >95%)

## CC1(S(=O)(=O)c2cccc(C(F)(F)F)c2)CCOC(c2ccc(-n3cncn3)cc2)C1 (single isomer, unassigned) [SC-134, 1-[4-[4-Methyl-4-[[3-(trifluoromethyl)phenyl]sulfonyl]-tetrahydro-pyran-2-yl]-phenyl]-1H-[1,2,4]triazole]
  inhibition at 3 µM: 75 to 95%

## CC1(S(=O)(=O)c2cccc(C(F)(F)F)c2)CCOC(c2ccc(-n3cncn3)cc2)C1 (single isomer, unassigned) [SC-135, 1-[4-[4-Methyl-4-[[3-(trifluoromethyl)phenyl]sulfonyl]-tetrahydro-pyran-2-yl]-phenyl]-1H-[1,2,4]triazole]
  Activity Category: %-Inhib (CaV2.2) @3 μM @30 mM KCl: A (%-Inhibition >95%)

## CC1(S(=O)(=O)c2cccc(C(F)(F)F)c2)CCOC(c2ccc(F)c(C#N)c2)C1 (single isomer, unassigned) [SC-136, 2-Fluoro-5-[4-methyl-4-[[3-(trifluoromethyl)phenyl]sulfonyl]-tetrahydro-pyran-2-yl]-benzonitrile]
  inhibition at 3 µM: > 95%

## CC1(S(=O)(=O)c2cccc(C(F)(F)F)c2)CCOC(c2ccc(F)c(C(N)=O)c2)C1 (single isomer, unassigned) [SC-138, 2-Fluoro-5-[4-methyl-4-[[3-(trifluoromethyl)phenyl]sulfonyl]-tetrahydro-pyran-2-yl]-benzamide]
  Activity Category: %-Inhib (CaV2.2) @3 μM @30 mM KCl: C (%-Inhibition >40% up to ≦75%)

## CC1(S(=O)(=O)c2cccc(C(F)(F)F)c2)CCOC(c2ccc(F)c(C(N)=O)c2)C1 (single isomer, unassigned) [SC-139, 2-Fluoro-5-[4-methyl-4-[[3-(trifluoromethyl)phenyl]sulfonyl]-tetrahydro-pyran-2-yl]-benzamide]
  Activity Category: %-Inhib (CaV2.2) @3 μM @30 mM KCl: B (%-Inhibition >75% up to ≦95%)

## CC1(S(=O)(=O)c2cc(F)cc(C(F)(F)F)c2)CCOC(c2ccc(S(C)(=O)=O)cc2)C1 (single isomer, unassigned) [SC-142, 4-[[3-Fluoro-5-(trifluoromethyl)-phenyl]sulfonyl]-4-methyl-2-(4-methylsulfonyl-phenyl)-tetrahydro-pyran]
  inhibition at 3 µM: 75 to 95%

## CC1(S(=O)(=O)c2cccc(C(F)(F)F)c2)CCOC(COc2ccc(S(C)(=O)=O)cc2F)C1 (single isomer, unassigned) [SC-148, 2-[(2-Fluoro-4-methylsulfonyl-phenoxy)-methyl]-4-methyl-4-[[3-(trifluoromethyl)phenyl]sulfonyl]-tetrahydro-pyran]
  inhibition at 3 µM: 75 to 95%

## CC1(S(=O)(=O)c2cccc(C(F)(F)F)c2)CCOC(COc2ccc(S(C)(=O)=O)cc2F)C1 (single isomer, unassigned) [SC-149, 2-[(2-Fluoro-4-methylsulfonyl-phenoxy)-methyl]-4-methyl-4-[[3-(trifluoromethyl)phenyl]sulfonyl]-tetrahydro-pyran]
  Activity Category: %-Inhib (CaV2.2) @3 μM @30 mM KCl: A (%-Inhibition >95%)

## CC1(S(=O)(=O)c2cccc(C(F)(F)F)c2)CCOC(COc2ccc(S(C)(=O)=O)c(F)c2)C1 (single isomer, unassigned) [SC-150, 2-[(3-Fluoro-4-methylsulfonyl-phenoxy)-methyl]-4-methyl-4-[[3-(trifluoromethyl)phenyl]sulfonyl]-tetrahydro-pyran]
  inhibition at 3 µM: 75 to 95%
